Data from PubChem BioAssay AID463204 (Broad Institute, 2010).
Calls of active or inactive are those of the source.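 The calls were made as follows: active = AC50 no more than ten times the top concentration tested, that is within one log above it; inconclusive = flat curve fit with activity between 30% and 70%, or invalid poor fit; inactive = AC50 beyond ten times the top tested dose.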

test system: S. cerevisiae Mot1-301 ts growth rescue, BacTiter-Glo ATP luminescence; assay: restored Mot1-301 yeast growth at 38.5C – whole organism, S. cerevisiae, Mot1-301 ts mutant, luminescence, dose retest, SUMOylation pathway inhibitor project, confirmation (AID 463204);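 also: growth at restrictive 38.5 degrees C of Mot1-301 OY566 strain; actives raise luminescence by restoring growth of the ts mutant at high temperature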

Row | Structure (SMILES) | AC50
1 | COC(=O)[C@@H]1C[C@@H]2CC[C@@H](O)C[C@@H]2N1Cc1ccc(N2CCN(C)CC2)cc1 | > 42 µM (inactive)
2 | CC1CC(C)(C)N2C(=O)C3(Nc4ccccc4S3)c3cccc1c32 (stereo unspecified) | 3.15 µM
3 | CSCCC(NC(=O)c1ccco1)C(=O)N1CCN(Cc2ccccc2)CC1 (stereo unspecified) | > 42 µM (inactive)
4 | CN(C(=O)c1ccc(-c2nn(C)c(=O)c3ccccc23)cc1)C1CCCCC1 | > 42 µM (inactive)
5 | O=C(COC(=O)/C=C/c1ccco1)Nc1ncc(C(F)(F)F)cc1Cl | > 42 µM (inactive)
6 | CC1CCCC(C)N1CCCNC(=O)c1csc2c1CCCCC2 (stereo unspecified) | > 42 µM (inactive)
7 | Cc1ccc(CN(C)C(=O)c2ccc3c(c2)NC(=O)CS3)o1 | > 42 µM (inactive)
8 | COc1ccc2[nH]cc(C(=O)C(=O)N3CCCCC3)c2c1 | > 42 µM (inactive)
9 | CS(=O)(=O)N(CC(=O)NCCSCc1ccccc1)c1ccc2c(c1)OCO2 | > 42 µM (inactive)
10 | Cc1ccc(C(=O)NC(NC(=O)c2ccc(C)cc2)C(Cl)Cl)cc1 | > 42 µM (inactive)
11 | O=C(COc1ccccc1)NCCS(=O)(=O)N1CCN(c2ccccc2)CC1 | > 42 µM (inactive)
12 | COc1ccc(C(=O)CC(=O)C(=O)Nc2ccc(C)c(Cl)c2)cc1 | > 42 µM (inactive)
13 | Fc1ccc2nc(C3CCN(Cc4nc(CC5CC5)no4)CC3)[nH]c2c1 | > 42 µM (inactive)
14 | CCOC(=O)c1c(C)[nH]c(O)c1C=Nc1ccccc1 | > 42 µM (inactive)
15 | CN(C)CCOC(c1ccc(Cl)cc1)c1ccccn1 (stereo unspecified) | > 42 µM (inactive)
16 | Cc1cc([N+](=O)[O-])nn1CC(=O)NNC(=S)Nc1ccc([N+](=O)[O-])cc1 | > 42 µM (inactive)
17 | CN1C2CCC1CC(OC(=O)c1ccc([N+](=O)[O-])cc1)C2 (stereo unspecified) | > 42 µM (inactive)
18 | COC(=O)c1sc(NC(=O)c2ccc(Cn3cc(Cl)cn3)o2)c(C#N)c1C | > 42 µM (inactive)
19 | COc1cc(C(=O)OCC(=O)NCc2ccccc2)cc(NC(=O)c2ccco2)c1OC | > 42 µM (inactive)
20 | COc1ccccc1NC(=O)c1nn(-c2cccc(C(F)(F)F)c2)ccc1=O | > 42 µM (inactive)
21 | CC(C)C/C(=N/O)c1c[nH]c2ccccc12 | > 42 µM (inactive)
22 | CN(C=O)CP(=O)(O)CN(C)C=O | > 42 µM (inactive)
23 | COc1ccc(CCNC(=O)Cn2nnc(-c3ccc(N4CCOCC4)cc3)n2)cc1OC | > 42 µM (inactive)
24 | O=S(=O)(NCCN1CCCC1)c1cccc2cccnc12 | > 42 µM (inactive)
25 | CC(C)n1c(CN(C)c2ccccc2)nc2ccccc21 | > 42 µM (inactive)
26 | CCCCC(=O)NC(=S)Nc1cccc(C(=O)O)c1 | > 42 µM (inactive)

Row | Structure (SMILES) | AC50
27 | CCCn1c(SC(C)C(=O)NCC2CCCO2)nc2sc(CC)cc2c1=O (stereo unspecified) | > 42 µM (inactive)
28 | Cc1cc(C(F)F)n2ncc(C(=O)NCCc3ccc(Cl)cc3)c2n1 | > 42 µM (inactive)
29 | CCC1(CC)NC(=O)N(CC(=O)OCC(=O)NC(=O)c2ccccc2)C1=O | > 42 µM (inactive)
30 | CC1CCN(CCCCOc2ccc(F)cc2)CC1 | > 42 µM (inactive)
31 | Cc1ccc(C)c(C(C)NC(=O)c2ccncc2)c1 (stereo unspecified) | > 42 µM (inactive)
32 | Cc1ccc(S(=O)(=O)n2cccc2C)cc1 | > 42 µM (inactive)
33 | CCNC(=O)/C(C#N)=C/c1c(N2CCCCCC2)nc2ccccn2c1=O | > 42 µM (inactive)
34 | O=C(O)CSc1ncnc2sc(-c3ccccc3)cc12 | > 42 µM (inactive)
35 | CCCCn1c(=O)[nH]c(=O)c2c1nc(COc1ccc(C#N)cc1)n2CCC | > 42 µM (inactive)
36 | COC(=O)c1cc2occc2n1Cc1nc(-c2ccccc2C)oc1C | > 42 µM (inactive)
37 | CS(=O)(=O)N1CCCC(C(=O)Nc2ccc(F)cc2F)C1 (stereo unspecified) | > 42 µM (inactive)
38 | Cc1[nH]c2ccccc2c1/C=N/NC(=O)c1cccc(Br)c1 | > 42 µM (inactive)
39 | COc1ccc(/C=N\NC(=O)c2cc(OCC(F)(F)F)ccc2OCC(F)(F)F)cc1 | > 42 µM (inactive)
40 | O=C(N/N=C/c1ccccc1)c1[nH]c2ccc(Br)cc2c1-c1ccccc1 | > 42 µM (inactive)
41 | Cc1cc2c(cc1C)-c1nnc(-c3ccc4ccccc4n3)n1C(C)(C)C2 | > 42 µM (inactive)
42 | O=c1[nH]cnc2sc3c(c12)CCC3 | > 42 µM (inactive)
43 | CCC(=O)Nc1ccc(Br)c(Cl)c1 | > 42 µM (inactive)
44 | CC1(C)C(C=C(Cl)Cl)C1C(=O)OCc1cccc(Oc2ccccc2)c1 (stereo unspecified) | > 42 µM (inactive)
45 | CC1(C)C=C(c2ccc(O)cc2)CC(C)(C)N1 | > 42 µM (inactive)
46 | CCCn1c(N)cc(=O)n(CCC)c1=O | > 42 µM (inactive)
47 | Cc1nc(C)n(CC(=O)N2CCCC(C(=O)c3cccc4ccccc34)C2)n1 (stereo unspecified) | > 42 µM (inactive)
48 | c1ccc2cc(C3CCCCC3)ncc2c1 | 14 µM
49 | c1ccc2nc3c(nc2c1)OCC1CCCCN31 (stereo unspecified) | > 42 µM (inactive)
50 | O=c1cc(-c2ccccc2)nc(N2CCN(Cc3ccccc3)CC2)[nH]1 | > 42 µM (inactive)
51 | CCN(CC)/C(=N\S(=O)(=O)c1ccc(F)cc1)c1ccccc1 | > 21 µM (inactive)
52 | COc1cc(C)ccc1OCCCOc1ccccc1Br | > 42 µM (inactive)

Row | Structure (SMILES) | AC50
53 | c1ccc(N2CCN(C3CCSC3)CC2)cc1 (stereo unspecified) | > 42 µM (inactive)
54 | Cc1sc2ncn(C(C)C(=O)OC3CCCCC3)c(=O)c2c1C (stereo unspecified) | > 42 µM (inactive)
55 | Cc1ccc(C)c(S(=O)(=O)n2cnc3ccccc32)c1 | > 42 µM (inactive)
56 | COc1ccccc1-c1nnc(SCC(=O)NC2CCS(=O)(=O)C2)n1N (stereo unspecified) | > 42 µM (inactive)
57 | N/C(=N\NC(=O)c1sccc1OCc1ccc(Cl)cc1Cl)c1ccccn1 | > 42 µM (inactive)
58 | Nc1cc(C(=O)OCC(=O)N2CCOCC2)ccc1Cl | > 42 µM (inactive)
59 | Cc1cc(-c2ccccc2)n(-c2ccc(C(=O)NC(C)C)cc2)n1 | > 42 µM (inactive)
60 | Cc1ccc(S(=O)(=O)N2[C@@H](c3ccccc3F)C(C(=O)O)=CC[C@H]2c2ccc3c(c2)OCO3)cc1 | > 42 µM (inactive)
61 | O=C(Nc1ccc2oc(-c3ccccc3F)nc2c1)c1ncn[nH]1 | > 42 µM (inactive)
62 | O=C(COc1cnc2ccccc2n1)NCCC1=CCCCC1 | > 42 µM (inactive)
63 | CCN(CC)S(=O)(=O)c1ccc(C(=O)NCCc2cc3c(OC)ccc(OC)c3[nH]c2=O)cc1 | > 42 µM (inactive)
64 | CCCCN(C/C=C/c1ccccc1OC)Cc1ccccc1 | > 42 µM (inactive)
65 | O=C(COc1ccc(Cl)cc1)NCCCNC(=O)c1ccccn1 | > 42 µM (inactive)
66 | CC(=O)Nc1cccc(NC(=S)Nc2ccc(F)cc2F)c1 | > 42 µM (inactive)
67 | COc1ccc(S(=O)(=O)n2nc(-c3ccc(Cl)cc3)cc2N)cc1OC | > 42 µM (inactive)
68 | CC(=O)N(C)c1ccc(N2CCOCC2)c2c1C(=O)c1ccccc1C2=O | > 42 µM (inactive)
69 | CCc1nnc2n1N=C(c1ccc(Cl)cc1)CS2 | > 42 µM (inactive)
70 | Cc1cc(C)cc(C(=O)NC(CC(N)=O)c2ccc(N3CCC(N4CCCCC4)CC3)c([N+](=O)[O-])c2)c1 (stereo unspecified) | > 42 µM (inactive)
71 | O=C(Oc1ccccc1N1C(=O)C2CC=CCC2C1=O)c1ccc(Br)cc1 (stereo unspecified) | > 42 µM (inactive)
72 | O=C(N=C1SC2CS(=O)(=O)CC2N1c1ccc(F)c(Cl)c1)C1CC1 (stereo unspecified) | > 42 µM (inactive)
73 | CCOc1cc(NC(=O)c2cccs2)c(OCC)cc1NC(=O)CCC(=O)NCCN1CCOCC1 | > 42 µM (inactive)
74 | CCCCn1c(N)c(N(CCOC)C(=O)c2cnccn2)c(=O)[nH]c1=O | > 42 µM (inactive)
75 | CCCCC(=O)Nc1cc(OC)c(NC(=O)C2CCCCC2)cc1OC | > 42 µM (inactive)
76 | O=C(COC(=O)C1COc2ccccc2O1)NC1CCS(=O)(=O)C1 (stereo unspecified) | > 42 µM (inactive)
77 | CCCOC(=O)C1=C(C)NC2=C(C(=O)CCC2)C1c1cccs1 (stereo unspecified) | > 42 µM (inactive)
78 | CCN(C(=O)COC(=O)c1c(-c2ccccc2)noc1C)c1c(N)n(Cc2ccccc2)c(=O)[nH]c1=O | > 42 µM (inactive)

Row | Structure (SMILES) | AC50
79 | COc1ccc(CN2CCN(C(=O)c3cc(-c4cccnc4)nc4ccc(Cl)cc34)CC2)c(OC)c1OC | > 42 µM (inactive)
80 | Cc1ccc(S(=O)(=O)N[C@@H](Cc2ccccc2)C(=O)CCl)cc1 | 1.47 µM
81 | COc1ccc(-c2nnc(SCC(C)C)o2)cc1 | 31.1 µM
82 | O=C(CC(c1ccccc1)c1ccccc1)NCCOCc1ccccc1 | > 42 µM (inactive)
83 | Cc1cc(C)c(NC(=O)Cn2c([N+](=O)[O-])cnc2C)c(C)c1 | > 42 µM (inactive)
84 | CN(C)S(=O)(=O)c1ccc(Cl)c(NC(=O)CN2C(=O)NC(C)(C3CC3)C2=O)c1 (stereo unspecified) | > 42 µM (inactive)
85 | COc1cc(OC)c(C(=O)N2CCN(c3ccccn3)CC2)cc1OC | > 42 µM (inactive)
86 | CC(C(=O)N1CCN(C(=O)c2ccco2)CC1)n1sc2ccccc2c1=O (stereo unspecified) | > 42 µM (inactive)
87 | Cc1nc(NCCN2CCOCC2)c2nnn(Cc3c(F)cccc3Cl)c2n1 | > 42 µM (inactive)
88 | Cc1c(C(=O)N2CCN(CCc3ccccc3)CC2)oc2ccccc12 | > 42 µM (inactive)
89 | c1ccc(-c2nc(N3CCOCC3)c3ccccc3n2)nc1 | > 42 µM (inactive)
90 | O=C1CSC(c2ccc(F)c(F)c2)N1c1ccccc1F (stereo unspecified) | > 42 µM (inactive)
91 | O=C(Nc1ccc(F)cc1)c1cccnn1 | > 42 µM (inactive)
92 | Cc1cc(C)c(S(=O)(=O)c2cccc(C)c2C)c(=O)[nH]1 | > 42 µM (inactive)
93 | O=C(COC(=O)CNC(=O)c1ccc(Cl)cc1)Nc1ncc(C(F)(F)F)cc1Cl | > 42 µM (inactive)
94 | N#CC(C#N)=C1C=CC=CN1/C(=C\c1ccccc1Cl)C(=O)c1ccccc1 | 2.03 µM
95 | O=C(CCC(F)(F)F)N1CCCC(CO)(CCc2ccccc2)C1 (stereo unspecified) | > 42 µM (inactive)
96 | CCC1CCCCN1C(=O)CSc1nc2c([nH]c3ccccc32)c(=O)n1C (stereo unspecified) | > 42 µM (inactive)
97 | Cc1ccc(Cn2c(NCCc3ccccc3)nc3c2c(=O)n(C)c(=O)n3C)cc1 | > 42 µM (inactive)
98 | CN(C)c1ccc(/C=N\Nc2ccccn2)cc1 | > 42 µM (inactive)
99 | c1ccc(-c2nc(NCc3ccco3)c3ccccc3n2)nc1 | > 42 µM (inactive)
100 | CSc1ncc2ncn(C3OC(CO)C(O)C3O)c2n1 (stereo unspecified) | > 42 µM (inactive)
101 | Cc1ccc(C(=O)c2cc([N+](=O)[O-])ccc2N2CCCCC2)cc1C | > 42 µM (inactive)
